Values quoted from earlier work in patent publication US20240390277A1, “LIQUID FORMULATIONS OF TRAZODONE” (Rubicon Research Private Limited, priority 2023, published 2024).

Conditions: humans

## O=c1n(CCCN2CCN(c3cccc(Cl)c3)CC2)nc2ccccn12 [Trazodone]
  Volume of distribution: 1.2 L/kg
